In brackets after ≈: the same amount, converted by molar mass.
What was measured:
[1] = target: T1, Metallo-beta-lactamase type 2 (Bacteria, UniProt C7C422); test: Binding affinity to bacterial NDM-1 (unknown origin) using nitrocefin as substrate assessed as inhibition constant
[2] = target: T1, Metallo-beta-lactamase type 2; test: Inhibition of bacterial NDM-1 (unknown origin) using nitrocefin as substrate
Enterobacteriaceae [3] = test: Synergistic antibacterial activity against NDM-1-producing Carbapenem-resistant Enterobacteriaceae assessed as fractional inhibitory concentration index in presence of meropenem; format: functional
[4] = Cytotoxicity against human HEK293 cells incubated for 24 hrs by MTT assay; format: toxicity, cell-based
[5] = Cytotoxicity against human HepG2 cells incubated for 24 hrs by AlamarBlue-based assay; format: toxicity, cell-based
Vero C1008 = test: Cytotoxicity against African green monkey Vero E6 cells at 40 ug/ml relative to control; format: toxicity, cell-based; settings: chlorocebus sabaeus, at 40 µg/mL
Escherichia coli [6] = test: Synergistic activity against multiple NDM-1-producing engineered Escherichia coli clinical isolate assessed as fractional inhibition concentration index in presence of meropenem; format: functional
L929 [7] = test: Cytotoxicity against mouse L929 cells at 40 ug/ml relative to control; format: toxicity, cell-based; settings: at 40 µg/mL
[8] = target: T1, Metallo-beta-lactamase type 2; test: Inhibition of bacterial NDM-1 (unknown origin)
Escherichia coli [9] = test: Synergistic activity against NDM-1-producing engineered Escherichia coli assessed as fractional inhibition concentration index in presence of meropenem; format: functional
[10] = Inhibition of bacterial Metallo-beta-lactamase VIM-2 (unknown origin); parameters: species or system Bacteria
[11] = Inhibition of bacterial Metallo-beta-lactamase VIM-4 (unknown origin); parameters: species or system Bacteria
[12] = Binding affinity to bacterial Metallo-beta-lactamase VIM-2 (unknown origin) assessed as inhibition constant; parameters: species or system Bacteria
Beta-lactamase VIM-1 [13] = target: T2, Beta-lactamase VIM-1 (Bacteria, UniProt Q8GDC1); test: Inhibition of bacterial Metallo-beta-lactamase VIM-1 (unknown origin)
Escherichia coli [14] = test: Antibacterial activity against NDM-1-producing Escherichia coli in presence of meropenem; format: functional
Escherichia coli [15] = test: Synergistic activity against NDM-1-producing Escherichia coli RC0089 assessed as fractional inhibition concentration index in presence of meropenem by CLSI-based assay; format: functional
Escherichia coli [16] = test: Antibacterial activity against NDM-1-producing Escherichia coli RC0089 incubated for 16 to 20 hrs in presence of meropenem CLSI-based assay; format: functional; settings: time 16-20 hrs
[17] = Binding affinity to bacterial Metallo-beta-lactamase IMP-1 (unknown origin) using FC5 as substrate preincubated for 15 min followed by substrate addition by fluorescence based assay; parameters: species or system Bacteria
[18] = Cytotoxicity against human HepG2 cells incubated for 24 hrs by CellTiter-Glo assay; format: toxicity, cell-based
[19] = target: Metallo-beta-lactamase VIM-2 (Pseudomonas aeruginosa, UniProt D1MEN9); test: Inhibition of N-terminal His-tagged recombinant Pseudomonas aeruginosa Metallo-beta-lactamase VIM-2 expressed in Escherichia coli BL21 star cells using nitrocefin as substrate by absorbance based assay
Klebsiella pneumoniae [20] = test: Antibacterial activity against VIM-1-producing Klebsiella pneumoniae NCTC 13440 clinical isolate by CLSI-based broth microdilution method; format: functional
Escherichia coli [21] = test: Antibacterial activity against NDM-1-producing Escherichia coli assessed as fold reduction in MIC in presence of meropenem CLSI-based broth microdilution method; format: functional
Escherichia coli [22] = test: Antibacterial activity against IMP-type producing Escherichia coli clinical isolate in presence of meropenem by CLSI-based broth microdilution method; format: functional
Klebsiella pneumoniae [23] = test: Antibacterial activity against NDM-1-producing Klebsiella pneumoniae clinical isolate assessed as fold reduction in MIC in presence of meropenem CLSI-based broth microdilution method; format: functional
[24] = Inhibition of His-tagged recombinant bacterial Metallo-beta-lactamase IMP-1 (unknown origin) expressed in Escherichia coli BL21 star cells; parameters: species or system Bacteria
Escherichia coli [25] = test: Antibacterial activity against IMP-type producing Escherichia coli clinical isolate in presence of imipenem by CLSI-based broth microdilution method; format: functional
[26] = target: T1, Metallo-beta-lactamase type 2; test: Inhibition of bacterial NDM-1 (unknown origin) using imipenem as substrate by Agilent UV8453 Spectrometric analysis
L929 [27] = test: Cytotoxicity against mouse L929 cells at 50 uM incubated for 48 hrs by CCK8 assay relative to control; format: toxicity, cell-based; settings: l929, 48 h
Beta-lactamase VIM-1 [28] = target: T2, Beta-lactamase VIM-1; test: Binding affinity to bacterial Metallo-beta-lactamase VIM-1 (unknown origin) assessed as dissociation constant
[29] = Inhibition of Acinetobacter baumannii recombinant NDM-1 using nitrocefin as substrate preincubated for 10 mins followed by substrate addition by spectrophotometric analysis
Enterobacteriaceae [30] = test: Antibacterial activity against NDM-1-producing Enterobacteriaceae; format: functional
[31] = target: T1, Metallo-beta-lactamase type 2; test: Inhibition of wildtype bacterial NDM-1 (unknown origin) expressed in Escherichia coli BL21(DE3) cells using nitrocefin as substrate incubated for 20 mins by absorbance based assay
[32] = target: T1, Metallo-beta-lactamase type 2; test: Binding affinity to wildtype bacterial NDM-1 (unknown origin) expressed in Escherichia coli BL21(DE3) cells assessed as dissociation constant
Escherichia coli [33] = test: Synergistic activity against VIM-2-producing Escherichia coli assessed as fractional inhibition concentration index in presence of ceftazidime by checkerboard assay; format: functional
[34] = Binding affinity to bacterial Metallo-beta-lactamase VIM-2 (unknown origin) expressed in Escherichia coli BL21(DE3) cells assessed as inhibition constant; parameters: species or system Bacteria
[35] = target: Angiotensin-converting enzyme (Homo sapiens, UniProt P12821); test: Inhibition of angiotensin-converting enzyme (unknown origin)
Angiotensin-converting enzyme, sequence (P12821 whole entry): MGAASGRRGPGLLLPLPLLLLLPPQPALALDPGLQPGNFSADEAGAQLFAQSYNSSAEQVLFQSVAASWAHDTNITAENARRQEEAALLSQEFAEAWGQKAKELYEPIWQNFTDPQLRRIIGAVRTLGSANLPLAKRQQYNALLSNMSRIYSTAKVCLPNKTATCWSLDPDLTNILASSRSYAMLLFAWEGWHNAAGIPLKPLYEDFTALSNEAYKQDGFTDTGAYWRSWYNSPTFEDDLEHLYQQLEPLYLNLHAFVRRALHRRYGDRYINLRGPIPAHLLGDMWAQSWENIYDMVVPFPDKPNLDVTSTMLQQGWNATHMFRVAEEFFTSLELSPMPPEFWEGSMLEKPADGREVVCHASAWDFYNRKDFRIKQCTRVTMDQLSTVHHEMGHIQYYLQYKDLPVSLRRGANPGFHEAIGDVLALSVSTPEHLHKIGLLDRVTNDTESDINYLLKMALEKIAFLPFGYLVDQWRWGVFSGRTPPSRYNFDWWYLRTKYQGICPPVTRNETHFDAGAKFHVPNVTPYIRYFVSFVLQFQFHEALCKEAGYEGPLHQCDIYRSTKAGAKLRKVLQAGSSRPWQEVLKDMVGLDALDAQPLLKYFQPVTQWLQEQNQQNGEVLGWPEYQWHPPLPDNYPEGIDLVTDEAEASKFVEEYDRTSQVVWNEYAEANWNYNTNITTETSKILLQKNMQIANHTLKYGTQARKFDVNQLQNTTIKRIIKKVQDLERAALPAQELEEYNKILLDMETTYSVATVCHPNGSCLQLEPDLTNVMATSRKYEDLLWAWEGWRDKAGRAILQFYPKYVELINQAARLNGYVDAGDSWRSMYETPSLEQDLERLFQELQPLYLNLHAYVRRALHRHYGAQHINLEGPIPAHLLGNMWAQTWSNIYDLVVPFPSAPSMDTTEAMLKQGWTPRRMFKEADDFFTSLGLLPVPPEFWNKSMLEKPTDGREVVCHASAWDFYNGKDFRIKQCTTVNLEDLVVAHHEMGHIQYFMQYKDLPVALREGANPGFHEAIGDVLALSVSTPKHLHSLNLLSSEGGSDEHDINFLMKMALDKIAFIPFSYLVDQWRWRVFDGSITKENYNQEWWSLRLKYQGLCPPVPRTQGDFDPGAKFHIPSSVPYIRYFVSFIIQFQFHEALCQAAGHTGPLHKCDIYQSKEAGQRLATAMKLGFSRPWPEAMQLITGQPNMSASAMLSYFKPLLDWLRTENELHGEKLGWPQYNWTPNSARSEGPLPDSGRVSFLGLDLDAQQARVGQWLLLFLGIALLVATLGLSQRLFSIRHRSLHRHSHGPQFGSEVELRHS

Escherichia coli [36] = test: Synergistic activity against IMP-1 producing Escherichia coli NUBL-24 infected in CD1 mouse assessed as death rescue at 100 mg/kg, ip measured for 7 days in presence of meropenem relative to control; format: functional; settings: time 7 day
[37] = Binding affinity to bacterial Metallo-beta-lactamase IMP-1 (unknown origin) expressed in Escherichia coli BL21(DE3) cells assessed as inhibition constant; parameters: species or system Bacteria
Klebsiella pneumoniae [38] = test: Synergistic activity against NDM-1/VIM-1-producing Klebsiella pneumoniae MS5674 assessed as fractional inhibition concentration index in presence of meropenem by checkerboard assay; format: functional
[39] = Acute toxicity in iv dosed CD1 mouse assessed as lethal dose measured for 7 days; format: organism-based; settings: in vivo, time 7 day
HeLa = test: Cytotoxicity against human HeLa cells at >1000 uM incubated for 24 hrs by Celltiter assay relative to control; format: toxicity, cell-based
Escherichia coli [40] = test: Synergistic activity against IMP-1 producing engineered Escherichia coli NUBL-24 assessed as fractional inhibition concentration index incubated for 16 to 20 hrs in presence of meropenem by CLSI-based microdilution method; format: functional; settings: time 16-20 hrs
[41] = Acute toxicity in ip dosed CD1 mouse assessed as lethal dose measured for 7 days; format: organism-based; settings: in vivo, time 7 day

T1 sequence (C7C422 whole entry): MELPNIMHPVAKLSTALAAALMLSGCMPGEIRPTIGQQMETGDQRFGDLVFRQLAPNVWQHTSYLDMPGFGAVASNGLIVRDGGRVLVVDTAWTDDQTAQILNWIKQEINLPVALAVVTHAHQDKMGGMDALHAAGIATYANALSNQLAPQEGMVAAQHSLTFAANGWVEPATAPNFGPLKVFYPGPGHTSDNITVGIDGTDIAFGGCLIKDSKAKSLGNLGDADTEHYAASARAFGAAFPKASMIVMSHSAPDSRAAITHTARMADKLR

Structure (SMILES): COC(=O)[C@H]1CN(C(=O)CN(Cc2ccccn2)Cc2ccccn2)C[C@@H]1c1ccc(OCc2ccccc2)c(OC)c1 (racemic)
- Ki [1]: 4.6 µM
- IC50 [2]: 51 µM
- fractional inhibitory concentration index (FICI) (Enterobacteriaceae [3]): 0.01
- IC50 at 24 h [4]: > 128 µM

Structure (SMILES): CN(C[C@H](O)[C@@H](O)[C@H](O)[C@H](O)CO)C(=O)c1ccc(CN(Cc2ccccn2)Cc2ccccn2)nc1
- IC50 at 24 h [5]: > 100 µM

Structure (SMILES): CO[C@H]1C(=O)N2C(C(=O)O)=C(CSc3nc4ccccc4s3)CS[C@H]12
- Activity (Vero C1008): > 60%
- fractional inhibitory concentration index (FICI) (Escherichia coli [6]): 0.031
- Activity (L929 [7]): > 60%
- IC50 [8]: 0.096 µM
- fractional inhibitory concentration index (FICI) (Escherichia coli [9]): 0.02

Structure (SMILES): O=C(O)c1ccccc1CCn1c(-c2cccc(-c3ccccc3)c2)n[nH]c1=S
- IC50 [10]: 0.08 µM
- IC50 [11]: 2.1 µM
- Ki [12]: 0.038 µM
- IC50 (Beta-lactamase VIM-1 [13]): 1.61 µM

Structure (SMILES): CC(C)c1cc2c(c(O)c1O)[C@@]1(C(=O)O)CCCC(C)(C)[C@@H]1CC2 [CARNOSIC ACID]
- MIC (Escherichia coli [14]): 4 µg/mL

Structure (SMILES): CC(C)c1cccc2c(-c3ccc(F)cc3)c(C(=O)O)[nH]c12
- fractional inhibitory concentration index (FICI) (Escherichia coli [15]): 0.258
- MIC (Escherichia coli [16]): 16 µg/mL
- IC50 [17]: 0.14 µM

Structure (SMILES): Nc1ccc(-c2ccn(S(N)(=O)=O)c2C(=O)O)cn1
- CC50 at 24 h [18]: > 256 µg/mL
- IC50 [19]: 32.4 µM
- MIC50 (Klebsiella pneumoniae [20]): 0.06 µg/mL (≈ 0.213 µM)
- fold change (FC) (Escherichia coli [21]): 32
- MIC (Escherichia coli [22]): 0.03 µg/mL
- fold change (FC) (Klebsiella pneumoniae [23]): 32
- IC50 [24]: 0.43 µM
- MIC (Escherichia coli [25]): 0.25 µg/mL

Structure (SMILES): S=C(N/N=C/c1ccccn1)Nc1ccc(Cl)cc1
- IC50 [26]: 0.038 µM
- Activity (L929 [27]): > 60%

Structure (SMILES): O=C1C(SCCCS)CCN1c1ccccc1 (stereo not drawn)
- Kd (Beta-lactamase VIM-1 [28]): < 0.88 µM

Structure (SMILES): CC1=C(CO)C(=O)O[C@@H]([C@@H](C)[C@H]2CC[C@H]3[C@@H]4C[C@H]5O[C@]56[C@@H](O)C=CC(=O)[C@]6(C)[C@H]4CC[C@]23C)C1 [WITHAFERIN A]
- IC50 [29]: 24 µM

Structure (SMILES): CC1=C[C@@]2(C)[C@@H](/C(C)=C/[C@]3(C)O[C@H](C)[C@@]4(C)O[C@H]43)[C@](C)([C@@H](O)[C@@H](C)C(=O)C(C)C)[C@H]2[C@]2(C)O[C@H]12
- MIC50 (Enterobacteriaceae [30]): 32 µM (≈ 15.1 µg/mL)
- IC50 [31]: 12.1 µM
- Kd [32]: 11.8 µM

Structure (SMILES): Cc1oc(C)c(S(N)(=O)=O)c1C(=O)O
- fractional inhibitory concentration index (FICI) (Escherichia coli [33]): 0.31
- Ki [34]: 2.81 µM
- IC50 [35]: > 1000 µM
- Activity (Escherichia coli [36]): 90%
- Ki [37]: 0.22 µM
- fractional inhibitory concentration index (FICI) (Klebsiella pneumoniae [38]): 0.19
- LD50 at 168 h [39]: 246 mg/kg
- Activity (HeLa): > 50%
- fractional inhibitory concentration index (FICI) (Escherichia coli [40]): 0.11
- LD50 at 168 h [41]: > 1000 mg/kg
